Data on 3 substances can be found in patent US10426850B2, “Collagen mimetic peptides for targeting collagen strands for in vitro and in vivo imaging and therapeutic use” (The Johns Hopkins University, priority 2011, dated 2019).

Experiment [1] deals with T1, type I collagen films (fibrillar collagen) (Rattus norvegicus, UniProt P02454+P02466).
T1 construct: Collagen solution (200 μL, 3.71 mg/mL, type I rat tail, BD Science); purchased BD Science; host or cells: rat tail
Description: Photo-triggered CMP binding assay on collagen films. The method, then:
Collagen/gelatin binding assays. Collagen solution (200 μL, 3.71 mg/mL, type I rat tail, BD Science) in 0.02 N acetic acid was added to each well of a 96-well black/clear-bottom plate (Costar) and air-dried. To make gelatin films, the same collagen solution was denatured at 70° C. for 15 minutes before applying to the well. The dried films were neutralized and washed with 1×PBS buffer (pH 7.4) and deionized water. PBS solution of carboxyfluorescein-labeled caged CMP (40 μL, 50 μM, unless indicated otherwise) pre-equilibrated at 4° C. was added onto each reconstituted collagen or gelatin film and exposed to 365 nm UV light (10 mW/cm^2, from mercury arc lamp) for 11 minutes on ice. Wells for the UV-negative control groups were covered with aluminum foil to block UV exposure. After incubation at 4° C. for over 3 hours (unless indicated otherwise), the unbound materials were removed by rinsing with PBS buffer and deionized water. The films were allowed to dry in dark, after which the fluorescence (ex: 489 nm, em: 533 nm) was measured with a SpectraMax Gemini XPS microplate reader (Molecular Devices). Each binding experiment was done in triplicate.

In experiment [2] the test system is type I and type II gelatin. Description: CMP binding assay on thermally-denatured type I and II collagens (coatings). More on the design: species or system rat (type I), bovine (type II). As to conditions: UV-exposed, 20 μM, room temperature. As to the method:
CMP binding assay on thermally-denatured type I and II collagens. A solid-state protein coating instead of a reconstituted gelatin film (as described above) was chosen as the binding substrate to avoid the collagen type dependent film instability. Wells of nunc black 96-well maxisorp plate (Thermo Scientific) were charged with 50 μL of 1×PBS buffer containing 100 μg/mL type I or type II (bovine, BD Science) collagen which was denatured by 10 minutes of incubation at 75° C. After 1 hour, the coating solutions were removed and wells were washed with 1×PBS buffer containing 1 mg/mL BSA (PBSB), and blocked with 50 mg/mL BSA in PBS for 1 hour, followed by additional wash with PBSB. CF^NB(GPO)9 (SEQ ID NO: 4) or CF^SG9P9O9 (SEQ ID NO: 5) solution (20 μM, 50 μL in PBS) was added to each well, exposed to UV light for 10 min, and incubated at room temperature for 2.5 hours. Wells were washed three times with 100 μL of PBSB followed by fluorescence (ex: 489 nm, em: 533 nm) reading with a SpectraMax M-2 microplate reader (Molecular Devices). Each binding experiment was done in triplicate. The background fluorescence of empty wells was subtracted from the raw fluorescence data.

For experiment [3], the system named is collagens in fixed tissue sections (skin, cornea, bone). The experiment is described as follows: Immunohistochemistry of fixed tissue sections with UV-activated caged CMP. As to conditions: UV-activated on tissue. More on the design: species or system mouse. From the text:
For immunohistochemical staining, anti-collagen I antibody was purchased from Abcam (ab292, Cambridge, Mass.); bovine serum albumin (BSA), goat serum, and Triton X-100 were purchased from Sigma-Aldrich; DAPI was obtained from Roche Applied Science (Indianapolis, Ind.); Alexa Fluor® 594 F(ab′)2 fragment of goat anti-rabbit IgG and Prolong® Gold antifade reagent were purchased from Life Technologies. The skin and cornea tissues were harvested from a 23 month-old wild-type C57BL/6 mouse. The tissues were fixed with 4% paraformaldehyde in PBS solution (pH 7.4) for 1 hour and cryopreserved in Tissue-Tek O.C.T. medium (Sakura Finetek, Torrance, Calif.). Cryosections of 8 μm thickness were obtained and mounted onto charged glass slides. Paraffin embedded mouse bone sections were a kind gift from Dr. Catherine Foss and Dr. Collin Torok at Johns Hopkins University School of Medicine. The leg containing the tibia bone was harvested from a 12-week-old female athymic nu/nu mouse. The muscle tissues were manually trimmed, and the bone was fixed in 10% neutral-buffered formalin at room temperature overnight. The bone was demineralized in Decal Stat solution (Decal Chemical, Suffern, N.Y.) for 3 hr at room temperature, embedded in paraffin and sectioned to 4 μm at Tissue Microarray Facility of Johns Hopkins University. The formalin-fixed normal and fibrotic rat livers were a kind gift from Jie Yan and Yuzhan Kang at National University of Singapore. The tissues were sectioned to 10 μm thickness on glass slides and stained by Masson trichrome by the Reference Histology Laboratory, Johns Hopkins Medical Institutions.
Immunohistochemistry. Frozen fixed tissue slides were allowed to equilibrate to room temperature and dried under air flow. The tissue sections were permeabilized by cold methanol at −20° C. for 10 min, and incubated in 1×PBS solution. The paraffin embedded bone sections were de-paraffinized by two cycles of 5 min xylene wash, two cycles of 5 min 100% ethanol wash, and two cycles of 5 min 95% ethanol wash followed by soaking in 1×PBS solutions. […]

“Also recorded” adds a separate entry of the source.

T1 sequence (P02454 152-1207 limits assumed): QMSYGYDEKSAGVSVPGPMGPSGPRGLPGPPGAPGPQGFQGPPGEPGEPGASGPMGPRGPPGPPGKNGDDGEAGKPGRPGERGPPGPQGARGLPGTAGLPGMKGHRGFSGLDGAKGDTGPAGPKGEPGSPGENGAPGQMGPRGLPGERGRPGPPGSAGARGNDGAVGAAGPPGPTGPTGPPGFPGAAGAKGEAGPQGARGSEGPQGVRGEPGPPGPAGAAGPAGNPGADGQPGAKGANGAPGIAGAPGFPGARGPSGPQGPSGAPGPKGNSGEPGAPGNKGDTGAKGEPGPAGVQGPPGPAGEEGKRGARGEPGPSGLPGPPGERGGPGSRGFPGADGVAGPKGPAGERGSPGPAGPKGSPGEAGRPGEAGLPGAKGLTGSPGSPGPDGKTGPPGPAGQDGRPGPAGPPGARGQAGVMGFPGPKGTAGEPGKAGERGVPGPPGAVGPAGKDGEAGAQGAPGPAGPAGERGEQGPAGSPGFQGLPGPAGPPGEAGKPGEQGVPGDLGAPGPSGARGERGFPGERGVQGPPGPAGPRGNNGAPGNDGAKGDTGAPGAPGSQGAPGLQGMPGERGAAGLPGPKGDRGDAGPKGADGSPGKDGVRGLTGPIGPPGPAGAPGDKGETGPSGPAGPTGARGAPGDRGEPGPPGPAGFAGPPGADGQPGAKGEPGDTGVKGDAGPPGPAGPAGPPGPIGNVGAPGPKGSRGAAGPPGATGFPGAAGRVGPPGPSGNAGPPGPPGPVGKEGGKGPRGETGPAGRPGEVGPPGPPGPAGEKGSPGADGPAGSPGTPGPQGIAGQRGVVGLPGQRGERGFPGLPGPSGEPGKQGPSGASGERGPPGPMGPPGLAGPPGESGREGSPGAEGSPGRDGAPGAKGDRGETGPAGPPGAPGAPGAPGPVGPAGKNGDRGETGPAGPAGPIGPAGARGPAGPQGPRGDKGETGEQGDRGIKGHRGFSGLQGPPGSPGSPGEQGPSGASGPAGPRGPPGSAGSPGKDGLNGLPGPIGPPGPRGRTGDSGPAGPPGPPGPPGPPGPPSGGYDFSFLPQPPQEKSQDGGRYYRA
T1 sequence (P02466 86-1125 limits assumed): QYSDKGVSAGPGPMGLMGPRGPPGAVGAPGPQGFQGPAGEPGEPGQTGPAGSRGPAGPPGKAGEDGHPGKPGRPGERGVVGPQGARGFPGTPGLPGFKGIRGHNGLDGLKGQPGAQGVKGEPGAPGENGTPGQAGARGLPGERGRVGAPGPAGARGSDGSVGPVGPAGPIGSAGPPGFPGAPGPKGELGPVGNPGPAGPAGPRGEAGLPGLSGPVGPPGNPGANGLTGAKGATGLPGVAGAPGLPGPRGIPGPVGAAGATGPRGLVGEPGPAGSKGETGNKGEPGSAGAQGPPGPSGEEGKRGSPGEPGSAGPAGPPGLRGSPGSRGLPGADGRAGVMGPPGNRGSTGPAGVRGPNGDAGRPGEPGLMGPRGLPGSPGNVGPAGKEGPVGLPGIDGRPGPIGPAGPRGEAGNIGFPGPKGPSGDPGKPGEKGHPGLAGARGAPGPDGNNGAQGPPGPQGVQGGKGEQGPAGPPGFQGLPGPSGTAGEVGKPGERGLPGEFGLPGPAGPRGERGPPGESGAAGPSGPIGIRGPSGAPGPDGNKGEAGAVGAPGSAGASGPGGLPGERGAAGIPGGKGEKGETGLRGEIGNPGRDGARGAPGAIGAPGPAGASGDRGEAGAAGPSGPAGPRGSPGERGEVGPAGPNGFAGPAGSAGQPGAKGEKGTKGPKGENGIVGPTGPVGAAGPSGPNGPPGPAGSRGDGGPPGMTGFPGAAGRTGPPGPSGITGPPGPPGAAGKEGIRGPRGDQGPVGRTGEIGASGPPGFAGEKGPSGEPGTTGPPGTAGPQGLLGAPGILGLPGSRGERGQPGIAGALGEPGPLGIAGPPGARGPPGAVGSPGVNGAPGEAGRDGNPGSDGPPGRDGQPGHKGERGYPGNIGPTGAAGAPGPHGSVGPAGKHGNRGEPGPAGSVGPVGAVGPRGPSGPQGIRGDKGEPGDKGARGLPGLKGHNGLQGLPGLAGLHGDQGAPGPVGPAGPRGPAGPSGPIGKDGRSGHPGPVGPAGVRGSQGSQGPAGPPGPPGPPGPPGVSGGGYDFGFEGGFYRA

On to CF-GGG-(GPO)4^NBGPO(GPO)4 [CF^NB(GPO)9], for which the “collagen binding with and without UV exposure” value in experiment [1] (4° C., intact type I collagen films) is on record as “collagen binding was observed only after exposing the sample to UV light”. The “binding (fluorescence intensity of film)” value in experiment [1] (caged, UV−) is on record as “negligible”. Moreover, in experiment [2], the “binding affinity to gelatin (fluorescence level)” value was “confirmed for both type I and type II gelatin”.
As for CF-GGG-(GPO)9 [CF(GPO)9], the “CMP binding lower by a factor of, compared to UV-triggered binding of CF^NB(GPO)9” value in experiment [1] (non-caged, triple helical, with UV exposure, 4° C.) is listed as 11. In addition, in experiment [1] (thermally melted at 75° C., non-caged), the “heat-induced binding level compared to photo-triggered caged CF^NB(GPO)9” value is listed as “significantly elevated binding levels; also recorded: significantly higher binding level”. Moreover, the “staining of fixed mouse skin and cornea sections” value in experiment [3] is “effectively stained”. The “staining of demineralized, fixed, paraffin embedded mouse tibia bone sections” value in experiment [3] (data not shown) is “strong”.
Consider “CF-GGG-PGOGPGPOPOGOGOPPGOOPGGOOPPG [CF^SG9P9O9, reference compound]”, for which the “staining of fixed mouse skin and cornea sections” value in experiment [3] was “no discernible binding”. The “binding affinity to gelatin (fluorescence level)” value in experiment [2] is given as “negligible affinity to gelatin”.
